# Results: patent publication EP0533849B1 (ROUSSEL UCLAF, priority 1991, dated 1992)
# Target: Sucrose Phosphate Synthase (Zea mays, UniProt P31927)
# Conditions: phosphate gradient of the HAC (hydroxyapatite) stage
# Procedure: During purification SPS activity is followed in 2 ways : • a) either by means of a colorimetric test (P.S. Kerr et al., Planta., 1987, 170 : 515-519) called resorcinol test described below. […] In practice, to 45 µl (microliter) of enzymatic preparation 25 µl of a buffered solution containing the two substrates is added (UDPG 70 mM, F6P 28 mM, MgCl2 15 mM, HEPES 25 mM pH 7,5). After incubation at 37°C, reaction is stopped by adding 70 µl of NaOH in solution and heating at 95°C during 10 mn. After cooling, 0,25 ml of a solution 0,1 % resorcinol in ethanol 95 % is added, then 0,75 ml of HCl 30 % is added. The OD 520 mM is read after incubation 8 mn at 80 mn, and cooling. • b) or by means of a coupled enzymatic system (S. Harbron et al., Anal. Biochem. 1980, 107 : 56-59) being composed in the following way : [drawing 3]
# The disappearance of the NADH absorption at 340 nm is monitored 1 mole of NAD formed or 1 mole of NADH consumed corresponds to 1 mole of sucrose 6 P formed.
# In pratice, in a quartz spectrophotometric tun thermostated at 37°C, the following solution are added. • 540 µl of HEPES buffered 50 mM, MgCl2 10 mM KCl 20 mM pH=7.5, • 250 µl of a mixture of substrates PEP (1,6 mM NaDH 0,6 mM, ATP 4 mM UDPG 112 mM), • 60 µl of an enzyme mixture (LDH 166,7 U/ml PK 333,3 U/ml, NPzK 66,7 U/ml), • 100 µl of F6P 112 mM. […]
# Chain of Sucrose Phosphate Synthase (P31927 whole entry): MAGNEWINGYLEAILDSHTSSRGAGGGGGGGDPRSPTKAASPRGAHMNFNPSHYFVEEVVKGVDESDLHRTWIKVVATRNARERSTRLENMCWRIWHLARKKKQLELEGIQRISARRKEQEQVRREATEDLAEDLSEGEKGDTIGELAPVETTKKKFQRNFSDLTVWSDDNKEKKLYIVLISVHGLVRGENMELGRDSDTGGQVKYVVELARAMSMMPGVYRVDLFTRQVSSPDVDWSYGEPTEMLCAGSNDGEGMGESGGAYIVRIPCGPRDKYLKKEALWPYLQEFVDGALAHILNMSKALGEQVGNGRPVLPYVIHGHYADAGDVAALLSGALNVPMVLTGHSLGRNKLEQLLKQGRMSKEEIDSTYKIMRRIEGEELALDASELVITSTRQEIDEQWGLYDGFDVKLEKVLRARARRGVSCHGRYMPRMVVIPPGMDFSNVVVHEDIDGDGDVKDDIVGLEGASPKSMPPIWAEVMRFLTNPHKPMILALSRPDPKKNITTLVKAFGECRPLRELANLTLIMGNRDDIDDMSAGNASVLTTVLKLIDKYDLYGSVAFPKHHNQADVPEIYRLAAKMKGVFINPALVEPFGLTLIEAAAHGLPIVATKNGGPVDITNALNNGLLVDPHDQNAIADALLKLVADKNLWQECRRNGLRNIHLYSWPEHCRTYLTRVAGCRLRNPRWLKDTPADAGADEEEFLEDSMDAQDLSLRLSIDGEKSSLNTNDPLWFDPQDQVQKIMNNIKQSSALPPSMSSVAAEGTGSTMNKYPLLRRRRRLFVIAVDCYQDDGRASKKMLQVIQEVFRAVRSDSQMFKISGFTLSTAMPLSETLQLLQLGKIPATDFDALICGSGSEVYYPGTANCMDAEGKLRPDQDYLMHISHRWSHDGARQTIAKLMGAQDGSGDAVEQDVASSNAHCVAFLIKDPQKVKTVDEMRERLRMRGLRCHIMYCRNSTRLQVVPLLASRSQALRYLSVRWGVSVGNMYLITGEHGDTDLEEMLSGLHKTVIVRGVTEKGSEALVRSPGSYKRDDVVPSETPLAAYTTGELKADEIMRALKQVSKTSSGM
substance,measurement,value
phosphate,inhibition of SPS activity,partially inhibit SPS activity
